Patent US6335348B1, “Nitrogen-containing linear and azepinyl/ compositions and uses for vision and memory disorders” (GPI NIL Holdings, Inc., priority 1998, dated 2002)
Like-named read-outs stand apart in the source and are kept apart here. Marks after values point to notes of the source that are not given here.

Columns and labels:
FKBP12 = FKBP12 (Homo sapiens, UniProt P62942); assay: Ki test procedure: inhibition of peptidyl-prolyl isomerase (rotamase) activity, chymotrypsin-coupled assay; type: biochemical
Description: The inhibition of the prolyl peptidyl cis-trans isomerase activity of FKBP may be measured as an indicator of this affinity. Inhibition of the peptidyl-prolyl isomerase (rotamase) activity of the compounds used in the inventive methods and pharmaceutical compositions can be evaluated by known methods described in the literature (Harding et al., Nature, 1989, 341:758-760; Holt et al. J. Am. Chem. Soc., 115:9923-9938). […] The cis-trans isomerization of an alanine-proline bond in a model substrate, N-succinyl-[…]-nitroanilide, is monitored spectrophotometrically in a chymotrypsin-coupled assay, which releases para-nitroanilide from the trans form of the substrate. The inhibition of this reaction caused by the addition of different concentrations of inhibitor is determined, and the data is analyzed as a change in first-order rate constant as a function of inhibitor concentration to yield the apparent Ki values. […] The reaction is initiated by the addition of […] of substrate (succinyl-[…]-nitroanilide, 5 mg/mL in 2.35 mM LiCl in trifluoroethanol). The absorbance at 390 nm versus time is monitored for 90 seconds using a spectrophotometer and the rate constants are determined from the absorbance versus time data files.

[1] = Clearance (Table V comments); type: in vitro ADME
retinal ganglion cells = assay: Example 13: optic nerve transection, 28 days treatment, sacrifice 90 days after transection; type: in vivo, Sprague Dawley rats; conditions: 10 mg/kg/day s.c. for 28 days
Description: Retinal ganglion cells in adult male Sprague Dawley rats were retrogradely labeled by fluorogold injection in the LGNd and four days later the optic nerves were transected 5 mm behind the globe. […] All experimental animals and controls were sacrificed 90 days after transection.

[2] = test system: streptozotocin-induced diabetic rat; assay: Streptozotocin-induced diabetic sensory neuropathy, hot plate and tail flick; type: in vivo, Male Wistar rats; conditions: lesioned animals treated for 6 weeks at 10 mg/kg s.c.
Method: The procedure involved using Male Wistar rats which were given a single injection of streptozotocin (65 mg/kg i.v.). Blood glucose levels were determined weekly for the first three weeks and on the last week of the experiment. Animals were evaluated weekly for signs of sensory neuropathy using the conventional hot plate and tail flick apparatus test procedures.

[3] = test system: retinal ganglion cells and optic nerve axons; assay: Optic nerve transection, 14 or 28 day treatment, evaluated 90 days after transection; type: in vivo, Sprague Dawley rats; conditions: for Proximal optic nerve myelin basic protein Density: % areal coverage of optic nerve cross section, ± SEM; for Distal optic nerve: shrinkage of cross sectional area: compared to sham control
Description: All eyes and optic nerves stumps were removed.

[4] = test system: retinal ganglion cell axons; assay: Protection of retinal ganglion cell axons from degeneration 14 days after optic nerve transection (Table V); type: in vivo; conditions: ± SEM
Description: Efficacy of representative compounds from different immunophilin ligand series in protecting retinal ganglion cell axons from degeneration following optic nerve transection is set forth in Table V.

[5] = Table V comments, read-out: Ki rotamase
[6] = apparent Ki, Table C, read-out: Ki

Chain of FKBP12 (P62942 whole entry, species assumed): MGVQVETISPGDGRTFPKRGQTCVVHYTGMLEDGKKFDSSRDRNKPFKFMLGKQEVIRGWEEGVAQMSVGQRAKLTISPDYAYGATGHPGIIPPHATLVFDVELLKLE

CCC(C)(C)C(=O)C(=O)N1CCC[C@H]1C(=O)O [L]
Ki (FKBP12; [5]): ≥ 7.74 µM

CCC(C)(C)C(=O)C(=O)N1CCCC[C@H]1C(=O)OC(CCc1ccccc1)CCc1ccccc1 [E]
Clearance [1]: 41.8 µL/min

CCC(C)(C)C(=O)C(=O)N1CCC[C@H]1C(=O)OCCCc1cccnc1 [GPI 1046]
preservation of axons in the proximal stump (RT97 neurofilament immunohistochemistry) (retinal ganglion cells): preserved the axons of virtually all protected neurons | latency in hot plate and tail flick [2]: improvement in latency | Proximal optic nerve myelin basic protein Density ([3]; ONT/14 days GPI 1046): did not alter the pattern of myelin degeneration | Distal optic nerve: shrinkage of cross sectional area ([3]; ONT/14 days GPI 1046): did not protect against shrinkage of the distal stump | Distal optic nerve myelin basic protein Density: myelin loss ([3]; ONT/14 days GPI 1046, cross sectional area multiplied by myelin density): slightly increase the density,of myelin | RGC Counts ([3]; ONT/28 days GPI 1046, 10 mg/kg/day sc, 90 days after transection, mean density of Fluoro-gold labeled RGC in 400 μm × 400 μm gridfields): 67.9 + | Proximal optic nerve myelin basic protein Density ([3]; ONT/28 days GPI 1046): dramatic preservation of the fascicular staining pattern | ON axon Count ([3]; ONT/28 days GPI 1046, calculated by multiplying axonal density by ON area): 22.861* | Distal optic nerve: shrinkage of cross sectional area ([3]; ONT/28 days GPI 1046): prevented cross sectional shrinkage | Distal optic nerve myelin basic protein Density: myelin preservation ([3]; ONT/28 days GPI 1046, cross sectional area multiplied by myelin density): 99% myelin % myelin preservation

COc1ccc(CCCCOC(=O)C2CCCCN2C(=O)C(=O)c2cc(OC)c(OC)c(OC)c2)cc1 (centres unmarked) [Compound 25]
Ki (FKBP12; [6]): 0.013 µM

CCC(C)(C)C(=O)C(=O)N1CCCC[C@H]1C(=O)SCCC(c1ccccc1)c1ccccc1 [Compound K]
RT97 + RGC axon density 14 days after ON transection (% ON axons rescued) [4]: 13.0% ± 4.2% SEM | Clearance [1]: 4.5 µL/min

CCC(C)(C)C(=O)C(=O)N1CCC[C@H]1C(=O)CCCCc1cccnc1 [J]
RT97 + RGC axon density 14 days after ON transection (% ON axons rescued) [4]: 15.8% ± 4.8% SEM

CCC(C)(C)C(=O)C(=O)N1CCC[C@H]1C(=O)SCCC(c1ccccc1)c1ccccc1 [M]
RT97 + RGC axon density 14 days after ON transection (% ON axons rescued) [4]: −6.3% + 3.9% SEM

CCC(C)(C)C(=O)C(=O)N1CCCC[C@H]1C(=O)O [G]
RT97 + RGC axon density 14 days after ON transection (% ON axons rescued) [4]: 34.0% ± 4.8% SEM | Ki (FKBP12; [5]): > 10 µM

O=C(OCCCCc1ccccc1)[C@@H]1CCCCN1S(=O)(=O)Cc1ccccc1 [D]
RT97 + RGC axon density 14 days after ON transection (% ON axons rescued) [4]: 58.4% ± 6.4% SEM

CCC(C)(C)C(=O)C(=O)N1CCS[C@@H]1C(=O)OCCCc1cccnc1 [F]
RT97 + RGC axon density 14 days after ON transection (% ON axons rescued) [4]: 55.1% ± 5.9% SEM

COC(=O)C(=O)N1CCCCC1C(=O)OCCCC1CCCCC1 (centres unmarked) [Compound 18]
Ki (FKBP12; [6]): 20 µM

COC(=O)C(=O)N1CCCCC1C(=O)OCCCC1CCCC1 (centres unmarked) [Compound 19]
Ki (FKBP12; [6]): 35 µM

O=C(SCCCc1ccccc1)[C@@H]1CCCN1C(=O)NC12CC3CC4(CC(C3)(C4)C1)C2 [Compound B]
RT97 + RGC axon density 14 days after ON transection (% ON axons rescued) [4]: 100.0% ± 5.2% SEM | Ki (FKBP12; [5]): 0.149 µM

CCC(C)(C)C(=O)C(=O)N1CCCC[C@H]1C(N)=O [H]
RT97 + RGC axon density 14 days after ON transection (% ON axons rescued) [4]: 30.3% ± 8.0% SEM
